Measurements as given in patent publication US8557959B2, “Allele and isotope-specific intervention on MHC class II molecules associated with autoimmune diseases by means of peptides” (Merck Serono S.A., priority 2007, dated 2013).
Read-outs that look alike come from different tables or passages of the source.

Assays:
[1] = biological target: T1, HLA-DR2b molecules (Homo sapiens, UniProt P01903+P01911); assay: competitive ELISA (dissociation-enhanced lanthanide fluoroimmunoassay) with biotinylated CLIP 97-120 as tracer on purified DR2b molecules; format: binding
T1 construct: made in house; host or cells: L cells co-transfected with HLA-DRA and HLA-DRB1*1501
Source text: DR2b molecules were purified from L cells that had been co-transfected with HLA-DRA and HLA-DRB1*1501, by affinity chromatography using the HLA-DR-specific L243 antibody, as described in Weissert et al. (2001), MHC class II-regulated central nervous system autoaggression and T cell responses in peripheral lymphoid tissues are dissociated in myelin oligodendrocyte glycoprotein-induced experimental autoimmune encephalomyelitits, J. Immunol. 166, 7588-7599. The above publication is incorporated into the present application by reference. The binding assays were performed with a competitive ELISA based on a dissociation-enhanced lanthanide fluoroimmunoassay (Wallac, Turku, Finland). For the competitive ELISA, a 50 nM solution of DR2b molecules was incubated for 48 hours at 37° C. with 50 nM biotinylated CLIP 97-120 in the presence of 250 nM acetylated nonapeptide amide sublibrary or with various concentrations of competitor peptides ranging from 1 nM to 100 μM. The IC50 of a peptide was defined as the concentration of peptide that was required for a 50% inhibition of the binding of the tracer peptide. […]

[2] = test system: 08073 T cell hybridoma co-incubated with HLA-DR2b-transfected L466 cells; assay: blocking of MBP 85-99 induced IL-2 secretion by high-affinity ligands for DR2b; format: cell-based, mouse; details: 1 μg/ml MBP 85-99, 10 μg/ml peptide, 24 hours; FIG. 1
Procedure: L466 cells and 08073 cells, which were transfected with HLA-DR2b, were co-incubated in the presence of 1 μg/ml MBP 85-99 and 10 μg/ml of various HLA-DR2b peptides; “kein Komp.”=no peptide according to the invention in the batch. After 24 hours the supernatant was collected and the amount of IL-2 present in the supernatant was measured in a mouse-specific IL-2-ELISA.
L466 cells and 08073 cells that were transfected with HLA-DR2b were co-incubated in the presence of 1 μg/ml MBP 85-99 and 10 μg/ml of the HuPb28-variants. After 24 hours the supernatant was collected and the amount of IL-2 present in the supernatant was measured using a mouse-specific IL-2-ELISA.
A T cell hybridoma (08073), which expresses the T cell receptor that is specific for MBP 85-99, which is presented by HLA-DR2b, was provided. After stimulation with MBP 85-99, presented by HLA-DR2b-transfected L466 cells, the 08073 cells secreted significant amounts of IL-2. 5×10^4 08073 cells were co-incubated for 24 hours with 5×10^4 HLA-DR2b-transfected L466 cells in RPMI medium (Invitrogen, Pailey, United Kingdom)/2% FCS (PAA, Linz, Austria)/100 U/ml penicillin, 100 μg/ml streptomycin, 2 mM glutamine (all from Invitrogen) in the presence of 1 μg/ml […] with or without high-affinity peptides (10 μg/ml). The amounts of IL-2 that were secreted in the supernatant were detected using a mouse-IL-2-specific ELISA (BD Biosciences Pharmingen, San Diego, Calif., United States of America).

[3] = test system: HLA-DR2b-transgenic mice; assay: MOG 35-55-induced EAE, co-immunization experiment; format: in vivo, mouse
Procedure: DR2b mice were immunized with the MOG 35-55 peptide in CFA (n=8) or co-immunized with MOG 35-55 and the HuPb11 peptide (SEQ ID No. 17) (n=8) or MOG 35-55 and HuPb28 peptide (SEQ ID No. 9) (n=9). Pertussis toxin (PTX) was administered i.p. on days 0 and 2. The mice were measured daily for EAE and weighed.
The following classifications were used: 0, no disease; 1, weakness or paralysis of the tail; 2, weakness of the hind legs; 3, paralysis of the hind legs; 4, paralysis of the front and hind legs; 5, moribund or death caused by disease.

[4] = acetylated nonapeptide amides, 48 hours at 37° C., 50 nM DR2b, 50 nM biotinylated CLIP 97-120, read-out: IC50 for binding to HLA-DR2b molecules

Substance	IC50 [1, 4]	IL-2 secretion after stimulation of 08073 cells with MBP 85-99 [2]	further results
Ac-LILWYSSWP-NH2 [HuPb26, LILWYSSWP]	1 nM		
Ac-GPPERLEFR-NH2 [HuPb19, GPPERLEFR]	> 100000 nM	did not show any effect	
Ac-LIYWYSSWL-NH2 [HuPb22, LIYWYSSWL]	2 nM		
Ac-KGESGFRDR-NH2 [HuPb17, KGESGFRDR]		did not show any effect	IC50 [1]: > 100000 nM
Ac-MIYWYSSWL-NH2 [HuPb20, MIYWYSSWL]	1 nM		
Ac-LILYYYYYL-NH2 [HuPb23, LILYYYYYL]			affinity for HLA-DR2b in words [1]: moderate affinity
Ac-MIYWYSSWI-NH2 [HuPb21, MIYWYSSWI]	1 nM		
Ac-MIYWYNSWL-NH2 [HuPb31, MIYWYNSWL]	< 1 nM	significantly reduce IL-2 secretion	
Ac-MIYWYSNWL-NH2 [HuPb30, MIYWYSNWL]	< 1 nM	only a slight reduction in IL-2 secretion	
Ac-PYEAQELHE-NH2 [HuPb14, PYEAQELHE]	> 100000 nM		

Further lines, with some results ahead:

IC50 [1, 4]	Substance	IL-2 secretion after stimulation of 08073 cells with MBP 85-99 [2]	further results
1 nM	Ac-MIYWYSSWD-NH2 [HuPb33, MIYWYSSWD]		
2 nM	Ac-FILIYSNLF-NH2 [HuPb29, FILIYSNLF]		
< 1 nM	Ac-MLIYYSSYL-NH2 [HuPb28, MLIYYSSYL]	significantly reduce IL-2 secretion	clinical EAE symptoms ([3]; co-administration of 200 μg peptide with 300 μg MOG 35-55 in CFA at immunization): reduced the clinical EAE symptoms; EAE sum value ([3]; co-immunized with MOG 35-55 and peptide, n=9, p<0.05, FIG. 3): reduction in the sum value
2 nM	Ac-LILWYSSWL-NH2 [HuPb24, LILWYSSWL]		
1 nM	Ac-MIDWYSSWP-NH2 [HuPb34, MIDWYSSWP]		
> 100000 nM	Ac-WGLPEHLER-NH2 [HuPb11, WGLPEHLER]		
< 1 nM	Ac-LLYWYSSWP-NH2 [HuPb27, LLYWYSSWP]	only a slight reduction in IL-2 secretion	
< 1 nM	Ac-DIYWYSSWP-NH2 [HuPb32, DIYWYSSWP]	significantly reduce IL-2 secretion	
